Patent publication US6291671A, “Process for producing drug complexes” (Daiichi Pharmaceutical Co., Ltd., priority 1996, dated 2001)
Read-outs that look alike come from different tables or passages of the source. * marks the point of attachment. Exatecan = CC[C@@]1(O)C(=O)OCc2c1cc1n(c2=O)Cc2c-1nc1cc(F)c(C)c3c1c2[C@@H](N*)CC3

Experiments:
[1] = tested on: Meth A tumor-bearing mice; experiment: Antitumor activity, Meth A tumor-bearing mice, single administration on day 7; type: in vivo, mouse
Experimental: (§1) Meth A tumor-bearing mice were prepared (7 mice per group) by subcutaneously transplanting 1×10^6 mouse fibrosarcoma Meth A cells into the right inguinal regions of BALB/c male mice (7-week old). On day 7, the drug complex of Example 9 dissolved in distilled water for injection was injected in the tail vein of the Meth A tumor-bearing mice every 4 days 4 times. On day 21 after the transplantation, tumor masses were excised and weighed to calculate the inhibition rate of tumor growth according to the following equation: inhibition rate of tumor growth (%)=[1-(average tumor weight of the group administered with the test sample/average tumor weight of control group)]×100.
Meth A tumor-bearing mice (6 mice per group) were prepared according to a similar manner to that of Example 11 and the antitumor activity was compared to that obtained by single administration of the drug complexes of Examples 8 and 9 once on day 7.
(§2) Meth A tumor-bearing mice (6 mice per group) were prepared according to a similar manner to that of Example 11 and the antitumor activity of the drug complex of Example 15 was examined by single administration in a similar manner to that of Example 12.
as §2, with “1,” for “11”, “41” for “15”, “in the cases of” for “by”, “12, and its antitumor activity was compared to that of the drug compound, per se.” for “12.”
Meth A tumor-bearing mice (6 mice per group) were prepared according to a similar manner to that of Example 11, and the antitumor activity was examined according to a similar method to that in Example 12 by single administration of the drug complexes of Examples 29, 43, and 44, respectively.

[2] = cited from earlier work
[3] = tested on: Meth A tumor-bearing mice; experiment: Antitumor activity, Meth A tumor-bearing mice, i.v. every 4 days 4 times; type: in vivo, mouse; conditions: for Inhibition rate: calculated based on the drug compound, day 21
Experimental: as §1

[4] = tested on: Human lung cancer QG-90; experiment: Antitumor activity, human lung cancer QG-90-bearing nude mice, single i.v. administration; type: in vivo, human tumor in nude mice; conditions: for Inhibition rate / Numbers of died mice/mice used: calculated based on the drug compound
Experimental: (§3) SC-6 tumor-bearing nude mice (5 mice per group) were prepared by subcutaneously transplanting a piece of SC-6 human gastric tumor block into the right inguinal regions of nude mice (13AI,B/c-nu/nu, male). On day 27 after the transplantation, the drug complex of Example 15 dissolved in distilled water for injection was given as a single intravenous administration and its antitumor activity was compared to that of the drug compound, per se.
Human lung cancer QG-90-bearing nude mice (5 mice per group) were prepared according to a similar manner to that of Example 53. On day 16 after the transplantaion, the drug complex of Example 15 dissolved in distilled water for injection was given as a single intravenous administration and its antitumor activity was compared to that of the drug compound, per se.

[5] = tested on: SC-6 human gastric tumor; experiment: Antitumor activity, SC-6 tumor-bearing nude mice, single i.v. administration; type: in vivo, human tumor in nude mice; conditions: for Inhibition rate / Numbers of died mice/mice used: calculated based on the drug compound
Experimental: as §3

[6] = tested on: Meth A tumor-bearing mice; experiment: Pharmacokinetics of the drug complex in Meth A tumor-bearing mice; type: in vivo, mouse; conditions: 10 mg/kg single, calculated as the drug compound
Experimental: Meth A tumor-bearing mice were prepared according to a similar manner to that of Example 11, the drug complex of Example 15 was given as single administration in a similar manner to that of Example 12 (10 mg/kg: calculated as the drug compound), and the change of the drug complex concentration in various tissues was determined.

[7] = Example 11, every 4 days 4 times
[8] = single administration, compared to the drug compound, per se
[9] = single i.v., compared to the drug compound, per se

CC[C@@]1(O)C(=O)OCc2c1cc1n(c2=O)Cc2c-1nc1cc(F)c(C)c3c1c2[C@@H](N)CC3 [DX-8951, (1S,9S)-1-amino-9-ethyl-5-fluoro-2,3-dihydro-9-hydroxy-4-methyl-1H,12H-benzo[de]pyrano[3',4':6,7]indolizino[1,2-b]quinoline-10,13(9H,15H)-dione, reference compound]
Inhibition rate ([1]; Example 12 (Table 3), 20 mg/kg single): 59%
Inhibition rate ([1]; Example 12 (Table 3), 60 mg/kg single): 77%
lactone ring equilibrium ([2]; acidic aqueous medium, approximately at pH 3): compound whose lactone ring is closed
lactone ring equilibrium ([2]; basic aqueous medium, approximately at pH 10): compound whose lactone ring is opened

Carboxymethyldextran Polyalcohol-Gly-Gly-Phe-Gly-NH--A' (A--NH2 =DX-8951) [Example 9] ({carboxymethyldextran polyalcohol}-GGFG-Exatecan; also: N-terminus linked to carboxymethyldextran polyalcohol, C-terminus amide-linked to drug residue A' (DX-8951))
Inhibition rate ([3]; 0.35 × 4 mg/kg): 41%
Inhibition rate ([3]; 0.7 × 4 mg/kg): 59%
Inhibition rate ([3]; 1.4 × 4 mg/kg): 94%
antitumor activity (in words) [3, 7]: remarkably enhanced antitumor activity compared to the drug compound, per se
toxicity (weight loss) [3, 7]: no toxicity (weight loss)
Inhibition rate ([1]; Example 12 (Table 3), 2.5 mg/kg single, calculated based on the drug compound): 87%
Inhibition rate ([1]; Example 12 (Table 3), 5 mg/kg single, calculated based on the drug compound): 98%
antitumor activity (in words) [1, 8]: (Polysaccharide derivative)-Gly-Gly-Phe-Gly-NH--A'> (Polysaccharide derivative)-Gly-Gly-Gly-Phe-NH--A'> the drug compound, per se

Carboxymethyldextran Polyalcohol-Gly-Gly-Phe-Gly-NH--A' (A--NH2 =DX-8951) [Example 15] ({carboxymethyldextran polyalcohol}-GGFG-Exatecan; also: N-terminus linked to carboxymethyldextran polyalcohol, C-terminus amide-linked to drug residue A' (DX-8951))
Inhibition rate ([1]; Example 52 (table 4), 1.25 mg/kg single, calculated based on the drug compound): 83%
Inhibition rate ([1]; Example 52 (table 4), 2.5 mg/kg single, calculated based on the drug compound): 95%
Inhibition rate ([1]; Example 52 (table 4), 5 mg/kg single, calculated based on the drug compound): 99%
Inhibition rate ([1]; Example 52 (table 4), 10 mg/kg single, calculated based on the drug compound): 100%
antitumor activity (in words) [1, 8]: remarkably enhanced antitumor activity
effective dose-range (in words) [1, 8]: broader effective dose-range
Inhibition rate ([4]; 1.75 mg/kg single i.v.): 97%
Numbers of died mice/mice used ([4]; 1.75 mg/kg single i.v.): 0/5
Inhibition rate ([4]; 7 mg/kg single i.v.): 98%
Numbers of died mice/mice used ([4]; 7 mg/kg single i.v.): 0/5
antitumor activity (in words) [4, 9]: remarkably enhanced antitumor activity
effective dose-range (in words) [4, 9]: broader effective dose-range
Inhibition rate ([5]; 2 mg/kg single i.v.): 71%
Numbers of died mice/mice used ([5]; 2 mg/kg single i.v.): 0/5
Inhibition rate ([5]; 8 mg/kg single i.v.): 100%
Numbers of died mice/mice used ([5]; 8 mg/kg single i.v.): 0/5
death due to toxicity (in words) ([5]; single i.v.): no death due to toxicity
antitumor activity (in words) [5, 9]: higher antitumor activity compared to the drug compound, per se
distribution in tumor tissues [6]: high distribution in tumor tissues
retention of blood level [6]: extremely long retention of blood level
tumor selectivity against liver and small intestine [6]: high tumor selectivity against liver and small intestine
